{"source": "ChEMBL document CHEMBL3580609", "about": "“Novel phthalimide derivatives with TNF- and IL-1 expression inhibitory and apoptotic inducing properties” (Medchemcomm, 2014)", "key": {"Jurkat [1]": {"system": "Jurkat", "assay": "Inhibition of TNFalpha expression in human Jurkat cells containing GFP gene under control of TNF gene promoter at 100 uM incubated for 24 hrs", "type": "functional"}, "Jurkat [2]": {"system": "Jurkat", "assay": "Induction of apoptosis in human Jurkat cells at 100 uM incubated for 24 hrs by FITC-labeled capsase-3 substrate based Nucview-488 caspase-3 assay", "type": "functional, cell-based"}, "[3]": {"system": "Peritoneal macrophage cell", "assay": "Inhibition of TNFalpha production in LPS-induced mouse peritoneal macrophages at 50 uM incubated for 24 hrs by sandwich ELISA method", "type": "functional, cell-based"}, "Jurkat [4]": {"system": "Jurkat", "assay": "Induction of total cell death in human Jurkat cells containing GFP gene under control of TNF gene promoter at 10 uM incubated for 24 hrs by propidium iodide staining based assay"}, "Jurkat [5]": {"system": "Jurkat", "assay": "Inhibition of TNFalpha expression in human Jurkat cells containing GFP gene under control of TNF gene promoter at 10 uM incubated for 24 hrs", "type": "functional"}, "[6]": {"system": "Peritoneal macrophage cell", "assay": "Inhibition of IL-1beta production in LPS-induced mouse peritoneal macrophages at 50 uM incubated for 24 hrs by sandwich ELISA method", "type": "functional, cell-based"}, "Jurkat [7]": {"system": "Jurkat", "assay": "Induction of apoptosis in human Jurkat cells at 10 uM incubated for 24 hrs by FITC-labeled capsase-3 substrate based Nucview-488 caspase-3 assay", "type": "functional, cell-based"}, "Jurkat [8]": {"system": "Jurkat", "assay": "Induction of total cell death in human Jurkat cells containing GFP gene under control of TNF gene promoter at 100 uM incubated for 24 hrs by propidium iodide staining based assay"}, "Jurkat [9]": {"system": "Jurkat", "assay": "Inhibition of TNFalpha expression in human Jurkat cells containing GFP gene under control of TNF gene promoter at 100 uM incubated for 24 hrs relative to thalidomide", "type": "functional"}, "Jurkat [10]": {"system": "Jurkat", "assay": "Inhibition of TNFalpha expression in human Jurkat cells containing GFP gene under control of TNF gene promoter incubated for 24 hrs", "type": "functional, cell-based"}, "Mus musculus [11]": {"organism": "Mus musculus", "assay": "Reduction in serum cholesterol levels in Swiss white mouse after 16 days", "type": "functional"}, "Mus musculus [12]": {"organism": "Mus musculus", "assay": "Reduction in serum triglyceride levels in Swiss white mouse after 14 days", "type": "functional"}, "Jurkat [13]": {"system": "Jurkat", "assay": "Inhibition of TNFalpha expression in human Jurkat cells containing GFP gene under control of TNF gene promoter at 10 uM incubated for 24 hrs relative to thalidomide", "type": "functional"}}, "note": "The source made the active and inactive calls. The calls are words filed in the database; no cut-off is given here."}
{"smiles": "C[C@@H](C(=O)N/N=C\\c1ccccc1)N1C(=O)c2ccccc2C1=O", "values": [{"measurement": "inhibition at 100 µM", "setting": "Jurkat [1]", "value": 9.8, "unit": "%"}, {"measurement": "Activity", "setting": "Jurkat [2]", "value": "inactive"}, {"measurement": "inhibition", "setting": "[3]", "value": "Active"}, {"measurement": "Activity", "setting": "Jurkat [4]", "value": "Non-toxic"}, {"measurement": "inhibition at 10 µM", "setting": "Jurkat [5]", "value": 9.8, "unit": "%"}, {"measurement": "inhibition", "setting": "[6]", "value": "Active"}, {"measurement": "Activity", "setting": "Jurkat [7]", "value": "inactive"}]}
{"smiles": "O=C(N/N=C\\c1ccc(Cl)c(Cl)c1)[C@H](Cc1ccccc1)N1C(=O)c2ccccc2C1=O", "values": [{"measurement": "inhibition", "setting": "Jurkat [1]", "value": "Active"}, {"measurement": "Activity", "setting": "Jurkat [8]", "value": "Toxic"}, {"measurement": "inhibition", "setting": "Jurkat [5]", "value": "Active"}]}
{"smiles": "CC[C@H](C)[C@@H](C(=O)N/N=C\\c1ccccc1)N1C(=O)c2ccccc2C1=O", "values": [{"measurement": "inhibition", "setting": "Jurkat [1]", "value": "Active"}, {"measurement": "inhibition", "setting": "[3]", "value": "Active"}, {"measurement": "Activity", "setting": "Jurkat [4]", "value": "Non-toxic"}, {"measurement": "inhibition", "setting": "Jurkat [5]", "value": "Active"}, {"measurement": "inhibition", "setting": "[6]", "value": "Active"}]}
{"smiles": "CC[C@H](C)[C@@H](C(=O)N/N=C\\c1ccc(Cl)c(Cl)c1)N1C(=O)c2ccccc2C1=O", "values": [{"measurement": "inhibition at 100 µM", "setting": "Jurkat [1]", "value": 17, "unit": "%"}, {"measurement": "fold change (FC)", "setting": "Jurkat [9]", "value": 3}, {"measurement": "inhibition", "setting": "Jurkat [10]", "value": "Dose-dependent effect"}, {"measurement": "inhibition", "setting": "[3]", "value": "Active"}, {"measurement": "Activity", "setting": "Jurkat [8]", "value": "Toxic"}, {"measurement": "Activity", "setting": "Jurkat [4]", "value": "Non-toxic"}, {"measurement": "inhibition", "setting": "Jurkat [5]", "value": "inactive"}, {"measurement": "inhibition", "setting": "[6]", "value": "Active"}]}
{"smiles": "O=C(N/N=C\\c1ccc(Cl)cc1)[C@H](Cc1ccccc1)N1C(=O)c2ccccc2C1=O", "values": [{"measurement": "inhibition", "setting": "Jurkat [1]", "value": "Active"}, {"measurement": "inhibition", "setting": "Jurkat [5]", "value": "Active"}]}
{"smiles": "COc1ccc(/C=N\\NC(=O)[C@H](C)N2C(=O)c3ccccc3C2=O)cc1", "values": [{"measurement": "inhibition", "setting": "[3]", "value": "Active"}, {"measurement": "inhibition", "setting": "[6]", "value": "Active"}]}
{"smiles": "C[C@@H](C(=O)N/N=C\\c1ccc(Cl)cc1)N1C(=O)c2ccccc2C1=O", "values": [{"measurement": "inhibition", "setting": "Jurkat [1]", "value": "Active"}, {"measurement": "inhibition", "setting": "Jurkat [5]", "value": "Active"}]}
{"smiles": "CC(=O)c1ccccc1N1C(=O)c2ccccc2C1=O", "values": [{"measurement": "inhibition (INH)", "setting": "Mus musculus [11]", "value": 57, "unit": "%"}, {"measurement": "inhibition (INH)", "setting": "Mus musculus [12]", "value": 44, "unit": "%"}]}
{"smiles": "C[C@@H](C(=O)O)N1C(=O)c2ccccc2C1=O", "values": [{"measurement": "inhibition", "setting": "[3]", "value": "Active"}, {"measurement": "inhibition", "setting": "[6]", "value": "Active"}]}
{"smiles": "C[C@@H](C(=O)NN)N1C(=O)c2ccccc2C1=O", "values": [{"measurement": "inhibition", "setting": "[3]", "value": "Active"}, {"measurement": "inhibition", "setting": "[6]", "value": "Active"}]}
{"smiles": "CC[C@H](C)[C@@H](C(=O)N/N=C\\c1ccc(Cl)cc1)N1C(=O)c2ccccc2C1=O", "values": [{"measurement": "inhibition", "setting": "Jurkat [1]", "value": "Active"}, {"measurement": "Activity", "setting": "Jurkat [2]", "value": "Active"}, {"measurement": "inhibition", "setting": "[3]", "value": "Active"}, {"measurement": "Activity", "setting": "Jurkat [8]", "value": "Toxic"}, {"measurement": "inhibition at 10 µM", "setting": "Jurkat [5]", "value": 13, "unit": "%"}, {"measurement": "inhibition", "setting": "[6]", "value": "Active"}, {"measurement": "Activity", "setting": "Jurkat [7]", "value": "Active"}]}
{"smiles": "CCOC(=O)[C@H]([C@@H](C)CC)N1C(=O)c2ccccc2C1=O", "values": [{"measurement": "inhibition", "setting": "[3]", "value": "Active"}, {"measurement": "inhibition", "setting": "[6]", "value": "Active"}]}
{"smiles": "CC[C@H](C)[C@@H](C(=O)N/N=C\\c1ccc(OC)cc1)N1C(=O)c2ccccc2C1=O", "values": [{"measurement": "inhibition", "setting": "[3]", "value": "Active"}, {"measurement": "inhibition", "setting": "[6]", "value": "Active"}]}
{"smiles": "Nc1cccc2c1CN(C1CCC(=O)NC1=O)C2=O", "note": "(configuration not stated) [LENALIDOMIDE]", "values": [{"measurement": "inhibition at 100 µM", "setting": "Jurkat [1]", "value": 14, "unit": "%"}, {"measurement": "fold change (FC)", "setting": "Jurkat [9]", "value": 2}, {"measurement": "Activity", "setting": "Jurkat [2]", "value": "Active"}, {"measurement": "Activity", "setting": "Jurkat [8]", "value": "Non-toxic"}, {"measurement": "Activity", "setting": "Jurkat [4]", "value": "Non-toxic"}, {"measurement": "inhibition at 10 µM", "setting": "Jurkat [5]", "value": 14, "unit": "%"}, {"measurement": "Activity", "setting": "Jurkat [7]", "value": "Active"}, {"measurement": "fold change (FC)", "setting": "Jurkat [13]", "value": 2}]}
{"smiles": "NNC(=O)[C@H](Cc1ccccc1)N1C(=O)c2ccccc2C1=O", "values": [{"measurement": "inhibition", "setting": "[3]", "value": "Active"}, {"measurement": "inhibition", "setting": "[6]", "value": "Active"}]}
{"smiles": "CCOC(=O)[C@H](C)N1C(=O)c2ccccc2C1=O", "values": [{"measurement": "inhibition", "setting": "[3]", "value": "Active"}, {"measurement": "inhibition", "setting": "[6]", "value": "Active"}]}
{"smiles": "O=C1CCC(N2C(=O)c3ccccc3C2=O)C(=O)N1", "note": "(configuration not stated) [THALIDOMIDE]", "values": [{"measurement": "inhibition at 100 µM", "setting": "Jurkat [1]", "value": 5, "unit": "%"}, {"measurement": "inhibition", "setting": "[3]", "value": "Active"}, {"measurement": "Activity", "setting": "Jurkat [8]", "value": 2, "unit": "%"}, {"measurement": "Activity", "setting": "Jurkat [4]", "value": 2, "unit": "%"}, {"measurement": "inhibition at 10 µM", "setting": "Jurkat [5]", "value": 5, "unit": "%"}, {"measurement": "inhibition", "setting": "[6]", "value": "Active"}]}
{"smiles": "COc1ccc(/C=N\\NC(=O)[C@H](Cc2ccccc2)N2C(=O)c3ccccc3C2=O)cc1", "values": [{"measurement": "inhibition", "setting": "[3]", "value": "Active"}, {"measurement": "inhibition", "setting": "[6]", "value": "Active"}]}
{"smiles": "C[C@@H](C(=O)N/N=C\\c1ccc(Cl)c(Cl)c1)N1C(=O)c2ccccc2C1=O", "values": [{"measurement": "inhibition", "setting": "Jurkat [1]", "value": "Active"}, {"measurement": "inhibition", "setting": "Jurkat [5]", "value": "Active"}]}
{"smiles": "CCOC(=O)[C@H](Cc1ccccc1)N1C(=O)c2ccccc2C1=O", "values": [{"measurement": "inhibition", "setting": "[3]", "value": "Active"}, {"measurement": "inhibition", "setting": "[6]", "value": "Active"}]}
{"smiles": "O=C(N/N=C\\c1ccccc1)[C@H](Cc1ccccc1)N1C(=O)c2ccccc2C1=O", "values": [{"measurement": "inhibition at 100 µM", "setting": "Jurkat [1]", "value": 17, "unit": "%"}, {"measurement": "fold change (FC)", "setting": "Jurkat [9]", "value": 3}, {"measurement": "inhibition", "setting": "Jurkat [10]", "value": "Dose-dependent effect"}, {"measurement": "inhibition", "setting": "[3]", "value": "Active"}, {"measurement": "Activity", "setting": "Jurkat [8]", "value": "Toxic"}, {"measurement": "inhibition", "setting": "Jurkat [5]", "value": "inactive"}, {"measurement": "inhibition", "setting": "[6]", "value": "Active"}]}
